Values of other authors in EP0501250A1, “Fucose-marked batracylin derivatives” (BAYER AG, priority 1991, dated 1992).

Legend:
[1] = prior-art statement
Colon-38-Modell = Colon-38-Modell an der Maus

Nc1ccc2c(c1)CN1C(=O)c3ccccc3C1=N2 [Batracylin]
Löslichkeit in wasserhaltigen Lösungsmitteln [1]: geringe Löslichkeit
Antitumorwirkung (Colon-38-Modell): ausgezeichnete Antitumorwirkung
